# Laboratory results published in US20060089378A1 (priority 2004, published 2006).
# Key:
# [1] = molecular target: T1, Cannabinoid CB1 Receptor (Homo sapiens, UniProt P21554); assay: Binding assay for CB1 agonists or inverse agonists (radioligand competition, membranes of transfected SK-N-MC cells)
# T1 construct: expressed in transfected cells
# [2] = molecular target: T2, Cannabinoid CB2 Receptor (Homo sapiens, UniProt P34972); assay: Binding assay for CB2 agonists or inverse agonists (radioligand competition, membranes of transfected SK-N-MC cells)
# T2 construct: expressed in transfected cells
# [3] = molecular target: T3, CB2 receptor (human) (Homo sapiens, UniProt P34972); assay: Functional cell-based assay, CB2 receptor mediated change in CRE β-gal expression (adenylate cyclase activity) in SK-N-MC cells
# T3 construct: expressed in transfected cells
# [4] = molecular target: CB1 receptor (human) (Homo sapiens, UniProt P21554); assay: cell-based
# Sequence of CB1 receptor (human) (P21554 whole entry): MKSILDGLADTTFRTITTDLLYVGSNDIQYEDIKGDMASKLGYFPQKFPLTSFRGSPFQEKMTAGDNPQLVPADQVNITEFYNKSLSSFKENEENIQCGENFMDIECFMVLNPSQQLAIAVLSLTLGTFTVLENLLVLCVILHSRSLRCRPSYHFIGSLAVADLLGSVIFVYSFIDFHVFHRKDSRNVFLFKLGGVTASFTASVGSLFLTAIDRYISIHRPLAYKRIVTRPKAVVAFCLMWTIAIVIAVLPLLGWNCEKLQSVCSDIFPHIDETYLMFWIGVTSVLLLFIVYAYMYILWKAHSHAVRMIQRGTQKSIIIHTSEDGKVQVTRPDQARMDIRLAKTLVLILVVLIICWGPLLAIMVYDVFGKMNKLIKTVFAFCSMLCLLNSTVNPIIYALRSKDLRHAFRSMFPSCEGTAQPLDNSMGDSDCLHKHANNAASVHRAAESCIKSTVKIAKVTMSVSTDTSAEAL
# T2 sequence (P34972 whole entry): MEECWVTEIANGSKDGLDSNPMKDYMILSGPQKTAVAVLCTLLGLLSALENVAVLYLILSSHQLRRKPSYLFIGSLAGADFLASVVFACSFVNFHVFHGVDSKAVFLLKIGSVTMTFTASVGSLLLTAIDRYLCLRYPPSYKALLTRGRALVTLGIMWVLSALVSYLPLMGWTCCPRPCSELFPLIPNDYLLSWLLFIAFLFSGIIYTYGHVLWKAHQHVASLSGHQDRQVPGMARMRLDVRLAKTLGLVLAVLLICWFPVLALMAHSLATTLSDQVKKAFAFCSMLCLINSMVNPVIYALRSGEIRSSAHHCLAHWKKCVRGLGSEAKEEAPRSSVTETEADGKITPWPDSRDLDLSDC
# T3 sequence (P34972 whole entry): as above
# T1 sequence (P21554 whole entry): as the sequence (P21554 whole entry) above
SMILES,IC50 [1] [nM],IC50 [2] [nM],EC50 [3] [nM],EC50 [4] [nM],"change in functional activity ([3]; CB2 section, one compound concentration, relative to vehicle treated cell activity (100%)) [%]"
"CCOC(=O)N1CCc2c(c(C(=O)NC3C4(C)CCC(C4)C3(C)C)nn2C2CCCCC2)C1 (centres unmarked) [Cpd 120, 1-cyclohexyl-3-(1,3,3-trimethyl-bicyclo[2.2.1]hept-2-ylcarbamoyl)-1,4,6,7-tetrahydro-pyrazolo[4,3-c]pyridine-5-carboxylic acid ethyl ester]",500,20,50,20,
"CC12CCC(C1)C(C)(C)C2NC(=O)c1nn(C2CCCCC2)c2c1CN(S(C)(=O)=O)CC2 (centres unmarked) [Cpd 133, 1-cyclohexyl-5-methanesulfonyl-4,5,6,7-tetrahydro-1H-pyrazolo[4,3-c]pyridine-3-carboxylic acid (1,3,3-trimethyl-bicyclo[2.2.1]hept-2-yl)-amide]",400,300,,730,−29
